From patent US20240228463A1, “SODIUM CHANNEL INHIBITORS AND METHODS OF DESIGNING SAME” (Genentech, Inc., priority 2021, published 2024)

Target: T1, hNaV1.7 (Homo sapiens, UniProt Q15858)
T1 construct: expressed in transfected cells
Assay: Patch voltage clamp electrophysiology (EP), Syncropatch 384PE, Nav1.7 in CHO cells;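 further: Nav1.7 stably expressed from cDNA in CHO cells, holding potential of −50 mV kept for the entire experiment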
Type: cell-based
Settings: holding potential −50 mV, inhibition based on 7.5 min compound incubation, read-out: hNaV1.7 EP_SP

T1 sequence (Q15858 1-1977 isoform Q15858-3): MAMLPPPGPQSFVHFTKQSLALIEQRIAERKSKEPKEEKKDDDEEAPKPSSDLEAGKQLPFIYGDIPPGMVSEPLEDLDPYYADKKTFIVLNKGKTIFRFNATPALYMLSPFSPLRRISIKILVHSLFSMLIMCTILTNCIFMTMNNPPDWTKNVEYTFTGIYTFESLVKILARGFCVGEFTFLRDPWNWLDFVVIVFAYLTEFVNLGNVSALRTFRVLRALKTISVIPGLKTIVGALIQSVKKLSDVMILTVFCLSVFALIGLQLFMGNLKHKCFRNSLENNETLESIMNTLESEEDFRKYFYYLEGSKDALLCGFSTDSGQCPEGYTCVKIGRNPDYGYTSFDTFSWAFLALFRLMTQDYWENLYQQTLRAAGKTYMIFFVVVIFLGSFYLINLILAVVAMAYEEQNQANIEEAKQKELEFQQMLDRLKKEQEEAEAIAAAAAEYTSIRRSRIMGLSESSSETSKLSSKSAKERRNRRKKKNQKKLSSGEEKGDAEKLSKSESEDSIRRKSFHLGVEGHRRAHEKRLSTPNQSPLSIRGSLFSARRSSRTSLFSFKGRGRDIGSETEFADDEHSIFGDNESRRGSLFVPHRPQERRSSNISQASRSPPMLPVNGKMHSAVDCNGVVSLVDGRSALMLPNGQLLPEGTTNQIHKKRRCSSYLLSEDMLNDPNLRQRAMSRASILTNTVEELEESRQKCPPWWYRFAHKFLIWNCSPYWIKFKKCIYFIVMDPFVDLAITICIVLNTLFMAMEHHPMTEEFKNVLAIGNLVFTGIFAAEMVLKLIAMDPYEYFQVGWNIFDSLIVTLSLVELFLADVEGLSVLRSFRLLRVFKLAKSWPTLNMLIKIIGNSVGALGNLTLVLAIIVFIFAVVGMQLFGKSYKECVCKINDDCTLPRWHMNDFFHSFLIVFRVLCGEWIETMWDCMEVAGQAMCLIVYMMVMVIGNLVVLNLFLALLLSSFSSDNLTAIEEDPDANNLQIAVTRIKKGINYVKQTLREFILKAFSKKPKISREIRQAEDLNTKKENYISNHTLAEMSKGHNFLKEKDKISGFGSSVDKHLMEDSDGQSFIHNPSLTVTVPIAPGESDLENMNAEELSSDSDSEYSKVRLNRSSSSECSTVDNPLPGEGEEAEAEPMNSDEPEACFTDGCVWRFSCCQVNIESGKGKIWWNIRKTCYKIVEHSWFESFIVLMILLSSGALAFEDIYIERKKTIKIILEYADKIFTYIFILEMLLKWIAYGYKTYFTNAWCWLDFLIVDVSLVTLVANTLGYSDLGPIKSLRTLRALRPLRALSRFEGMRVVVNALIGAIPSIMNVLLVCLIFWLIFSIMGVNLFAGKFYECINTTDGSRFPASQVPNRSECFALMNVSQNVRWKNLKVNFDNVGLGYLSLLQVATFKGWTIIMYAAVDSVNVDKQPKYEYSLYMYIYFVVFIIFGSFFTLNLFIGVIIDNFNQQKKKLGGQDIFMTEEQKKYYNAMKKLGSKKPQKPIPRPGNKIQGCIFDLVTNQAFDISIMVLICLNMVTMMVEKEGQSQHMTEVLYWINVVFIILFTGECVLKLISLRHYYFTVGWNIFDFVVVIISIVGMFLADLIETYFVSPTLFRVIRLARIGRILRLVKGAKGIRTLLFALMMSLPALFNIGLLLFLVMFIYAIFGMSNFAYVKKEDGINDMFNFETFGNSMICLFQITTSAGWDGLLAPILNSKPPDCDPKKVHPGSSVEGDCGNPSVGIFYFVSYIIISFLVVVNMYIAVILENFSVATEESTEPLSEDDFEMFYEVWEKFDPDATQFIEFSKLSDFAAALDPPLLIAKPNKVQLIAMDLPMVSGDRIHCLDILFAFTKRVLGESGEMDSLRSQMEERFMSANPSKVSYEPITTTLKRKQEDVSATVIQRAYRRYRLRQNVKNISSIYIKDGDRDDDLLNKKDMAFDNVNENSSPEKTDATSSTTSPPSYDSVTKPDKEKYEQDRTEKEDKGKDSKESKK

| Structure (SMILES) | IC50 [nM] |
| --- | --- |
| CN(C)[C@H]1CCCC[C@@H]1Oc1ccc(S(=O)(=O)Nc2ccc(Oc3ccc(Cl)cc3)cn2)c(F)c1 [Example 258, N-(5-(4-chlorophenoxy)pyridin-2-yl)-4-(((1S,2S)-2-(dimethylamino)cyclohexyl)oxy)-2-fluorobenzenesulfonamide] | 830 |
| O=C(NS(=O)(=O)c1cnn(-c2cccc(C(F)(F)F)c2)c1)c1cc(Cl)c(OCC2CCCC2)cc1F [Example 259, 5-chloro-4-(cyclopentylmethoxy)-2-fluoro-N-((1-(3-(trifluoromethyl)phenyl)-1H-pyrazol-4-yl)sulfonyl)benzamide] | 790 |
| Cc1cccc(COc2ccc(S(=O)(=O)NC(=O)c3cc(Cl)c(OCC4CCCC4)cc3F)cc2)c1 [Example 260, 5-chloro-4-(cyclopentylmethoxy)-2-fluoro-N-((4-((3-methylbenzyl)oxy)phenyl)sulfonyl)benzamide] | 200 |
| O=C(NS(=O)(=O)c1ccc(Oc2ccccc2)cc1)c1cc(Cl)c(OCC2CCCC2)cc1F [Example 263, 5-chloro-4-(cyclopentylmethoxy)-2-fluoro-N-((4-phenoxyphenyl)sulfonyl)benzamide] | 220 |
| O=C(NS(=O)(=O)c1ccc(OCc2ccccc2Cl)cc1)c1cc(Cl)c(OCC2CCCC2)cc1F [Example 264, 5-chloro-N-((4-((2-chlorobenzyl)oxy)phenyl)sulfonyl)-4-(cyclopentylmethoxy)-2-fluorobenzamide] | 84 |
| O=C(NS(=O)(=O)Cc1cccc(F)c1F)c1cc(Cl)c(OCC2CCCC2)cc1F [Example 268, 5-chloro-4-(cyclopentylmethoxy)-N-((2,3-difluorobenzyl)sulfonyl)-2-fluorobenzamide] | 88 |
| O=C(NS(=O)(=O)c1cnn(-c2ccccc2F)c1)c1cc(Cl)c(OCC2CCCC2)cc1F [Example 269, 5-chloro-4-(cyclopentylmethoxy)-2-fluoro-N-((1-(2-fluorophenyl)-1H-pyrazol-4-yl)sulfonyl)benzamide] | 940 |
| O=C(NS(=O)(=O)Cc1ccc2ncccc2c1)c1cc(Cl)c(OCC2CCCC2)cc1F [Example 273, 5-chloro-4-(cyclopentylmethoxy)-2-fluoro-N-((quinolin-6-ylmethyl)sulfonyl)benzamide] | 230 |
| O=C(NS(=O)(=O)CCOCc1ccccc1)c1cc(Cl)c(OCC2CCCC2)cc1F [Example 274, N-((2-(benzyloxy)ethyl)sulfonyl)-5-chloro-4-(cyclopentylmethoxy)-2-fluorobenzamide] | 230 |
| O=C(NS(=O)(=O)c1ccc2ccccc2c1F)c1cc(Cl)c(OCC2CCCC2)cc1F [Example 278, 5-chloro-4-(cyclopentylmethoxy)-2-fluoro-N-((1-fluoronaphthalen-2-yl)sulfonyl)benzamide] | 960 |
| O=C(NS(=O)(=O)c1ccc(F)c2ncccc12)c1cc(Cl)c(OCC2CCCC2)cc1F [Example 279, 5-chloro-4-(cyclopentylmethoxy)-2-fluoro-N-((8-fluoroquinolin-5-yl)sulfonyl)benzamide] | 500 |

Now from value to compound:

| IC50 [nM] | Structure (SMILES) |
| --- | --- |
| 530 | O=C(NS(=O)(=O)c1ccc2c(c1)CCCC2)c1cc(Cl)c(OCC2CCCC2)cc1F [Example 261, 5-chloro-4-(cyclopentylmethoxy)-2-fluoro-N-((5,6,7,8-tetrahydronaphthalen-2-yl)sulfonyl)benzamide] |
| 270 | O=C(NS(=O)(=O)c1ccc2c(c1)CCC2)c1cc(Cl)c(OCC2CCCC2)cc1F [Example 262, 5-chloro-4-(cyclopentylmethoxy)-N-((2,3-dihydro-1H-inden-5-yl)sulfonyl)-2-fluorobenzamide] |
| 330 | O=C(NS(=O)(=O)c1ccc2c(c1)CCCO2)c1cc(Cl)c(OCC2CCCC2)cc1F [Example 265, 5-chloro-N-(chroman-6-ylsulfonyl)-4-(cyclopentylmethoxy)-2-fluorobenzamide] |
| 130 | O=C(NS(=O)(=O)CC1Cc2ccccc2C1)c1cc(Cl)c(OCC2CCCC2)cc1F [Example 266, 5-chloro-4-(cyclopentylmethoxy)-N-(((2,3-dihydro-1H-inden-2-yl)methyl)sulfonyl)-2-fluorobenzamide] |
| 800 | O=C(NS(=O)(=O)c1ccc2c(c1)NCCC2)c1cc(Cl)c(OCC2CCCC2)cc1F [Example 267, 5-chloro-4-(cyclopentylmethoxy)-2-fluoro-N-((1,2,3,4-tetrahydroquinolin-7-yl)sulfonyl)benzamide] |
| 380 | C[C@H]1Cc2cc(S(=O)(=O)NC(=O)c3cc(Cl)c(OCC4CCCC4)cc3F)ccc2O1 [Example 270, (S)-5-chloro-4-(cyclopentylmethoxy)-2-fluoro-N-((2-methyl-2,3-dihydrobenzofuran-5-yl)sulfonyl)benzamide] |
| 260 | O=C(NS(=O)(=O)c1ccc2c(c1)CCO2)c1cc(Cl)c(OCC2CCCC2)cc1F [Example 271, 5-chloro-4-(cyclopentylmethoxy)-N-((2,3-dihydrobenzofuran-5-yl)sulfonyl)-2-fluorobenzamide] |
| 210 | N#Cc1ccc(S(=O)(=O)NC(=O)c2cc(Cl)c(OCC3CCCC3)cc2F)c(F)c1 [Example 272, 5-chloro-N-((4-cyano-2-fluorophenyl)sulfonyl)-4-(cyclopentylmethoxy)-2-fluorobenzamide] |
| 510 | O=C(NS(=O)(=O)C1=Cc2ccccc2CC1)c1cc(Cl)c(OCC2CCCC2)cc1F [Example 275, 5-chloro-4-(cyclopentylmethoxy)-N-((3,4-dihydronaphthalen-2-yl)sulfonyl)-2-fluorobenzamide] |
| 130 | O=C(NS(=O)(=O)c1ccc(OC2CC2)cc1)c1cc(Cl)c(OCC2CCCC2)cc1F [Example 276, 5-chloro-4-(cyclopentylmethoxy)-N-((4-cyclopropoxyphenyl)sulfonyl)-2-fluorobenzamide] |
| 590 | NC(=O)[C@@H]1Cc2cc(S(=O)(=O)NC(=O)c3cc(Cl)c(OCC4CCCC4)cc3F)ccc2O1 [Example 277, (S)-5-(N-(5-chloro-4-(cyclopentylmethoxy)-2-fluorobenzoyl)sulfamoyl)-2,3-dihydrobenzofuran-2-carboxamide] |
| 710 | N#Cc1ccc(S(=O)(=O)NC(=O)c2cc(Cl)c(OCC3CCCC3)cc2F)cc1C(F)(F)F [Example 280, 5-chloro-N-((4-cyano-3-(trifluoromethyl)phenyl)sulfonyl)-4-(cyclopentylmethoxy)-2-fluorobenzamide] |
| 320 | O=C(NS(=O)(=O)c1ccc2c(c1)OCCO2)c1cc(Cl)c(OCC2CCCC2)cc1F [Example 281, 5-chloro-4-(cyclopentylmethoxy)-N-((2,3-dihydrobenzo[b][1,4]dioxin-6-yl)sulfonyl)-2-fluorobenzamide] |
| 760 | O=C(NS(=O)(=O)c1ccc2c(c1)NCC2)c1cc(Cl)c(OCC2CCCC2)cc1F [Example 282, 5-chloro-4-(cyclopentylmethoxy)-2-fluoro-N-(indolin-6-ylsulfonyl)benzamide] |
| 620 | O=C(NS(=O)(=O)c1ccc(C(F)(F)F)cc1)c1cc(Cl)c(OCC2CCCC2)cc1F [Example 283, 5-chloro-4-(cyclopentylmethoxy)-2-fluoro-N-((4-(trifluoromethyl)phenyl)sulfonyl)benzamide] |
| 350 | CCOc1ccc(S(=O)(=O)NC(=O)c2cc(Cl)c(OCC3CCCC3)cc2F)cn1 [Example 285, 5-chloro-4-(cyclopentylmethoxy)-N-((6-ethoxypyridin-3-yl)sulfonyl)-2-fluorobenzamide] |
